Target: T1, IRAK4 (Homo sapiens, UniProt Q9NWZ3)
T1 construct: C-terminal HiBiT-tagged Jurkat cells (polyclonal cell line or clone 8D5); endogenous in cells; host or cells: Jurkat cells (polyclonal cell line or clone 8D5), HiBiT-tagged
T1 sequence (Q9NWZ3 1-460): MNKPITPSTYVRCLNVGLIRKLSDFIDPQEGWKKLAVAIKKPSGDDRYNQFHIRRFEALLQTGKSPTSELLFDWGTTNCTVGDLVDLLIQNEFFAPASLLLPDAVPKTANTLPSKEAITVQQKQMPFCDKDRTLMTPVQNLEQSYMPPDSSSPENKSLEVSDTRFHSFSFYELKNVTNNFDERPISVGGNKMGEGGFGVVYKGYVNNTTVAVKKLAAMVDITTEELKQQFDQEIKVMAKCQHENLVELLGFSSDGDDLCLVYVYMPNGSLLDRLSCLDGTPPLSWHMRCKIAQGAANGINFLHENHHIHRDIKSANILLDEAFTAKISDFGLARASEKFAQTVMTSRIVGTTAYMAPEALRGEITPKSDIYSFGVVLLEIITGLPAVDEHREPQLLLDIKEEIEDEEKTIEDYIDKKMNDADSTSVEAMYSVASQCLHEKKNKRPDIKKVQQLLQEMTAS
Assay: IRAK4 Degradation HiBit Assay
Assay type: cell-based
Conditions: C-terminal HiBiT-tagged Jurkat cells, 4 hrs incubation; for DC50: % IRAK4 remaining, four-parameter fit (IC50 used as DC50); for Dmax: from fit of % IRAK4 remaining, read-out: Dmax
Protocol: Compound dilution series (11-point, 3.16-fold dilutions in DMSO, columns 1-11 and 12-22) at 500× the final required concentrations were prepared in Labcyte LDV 384-well plates (cat. no. LP-0200) using a Labcyte Echo 550 Liquid Handler. The 500× solutions ranged from 5 mM to 0.5 μM (final assay concentration range 10 μM to 0.1 nM). Using the Echo, the 500× solutions were stamped into white, 384-well assay plates (Corning, cat. no. 3570) at 60 nL/well. The following assay plate controls were also stamped at 60 nL/well: DMSO in wells E23-P23 (NC, Negative Control, maximum signal), 5 mM solution control compound al in wells A23-D23 and M24-P24 (AC, Active Control, minimum signal/background, 10 μM final assay concentration), control compound al dilution series in wells […] (12-point, 4-fold dilutions). C-terminal HiBiT-tagged Jurkat cells (polyclonal cell line or clone 8D5) were plated at 1×10^6 cells/mL, 30 μL/well (3×10^4 cells/well) in complete RPMI (10% FBS, 1% L-glutamine). Cells were incubated for 4 hrs at 32° C./6% CO2. Compound al has the following structure:
Following incubation, 30 μL of complete Nano-Glo HiBiT Lytic Detection Reagent (Nano-Glo HiBiT Lytic Buffer with 1:50 Nano-Glo HiBiT Lytic Substrate and 1:100 LgBiT Protein; Promega cat. no. N3040) was added. Cells were further incubated for 10 min at room temperature (RT). Luminescence units (LU) were read on an EnVision plate reader (Perkin Elmer, 0.1 sec per well). Percent IRAK4 remaining per sample was calculated as follows: […]
Using Graphpad Prism, % IRAK4 remaining values were plotted as a function of compound concentration. To determine DC50 and Dmax values, resulting curves were fit to the Prism curve-fitting equation “log (inhibitor) vs response-Variable slope (four parameters)” (reported best fit value IC50 used as DC50). Table 1 summarizes the biological data of Compounds of Examples 1-137 and 142-145 obtained from the assays described herein.

SMILES	DC50 [nM]	Dmax [%]
N#Cc1cnn2c(-c3cc(N[C@@H]4CCOC4)c(-c4nnc(N5CC6CCC(C5)N6CC5CCN(c6ccc([C@@H]7CCC(=O)NC7=O)cn6)CC5)s4)cn3)ccc2c1 (single isomer, unassigned) [Example 124]	8	110
N#CCNc1cc(-c2ccc3cc(C#N)cnn23)ncc1-c1nnc(N2CC3CCC(C2)N3CC2CCN(c3ccc([C@@H]4CCC(=O)NC4=O)cc3)CC2)s1 (single isomer, unassigned) [Example 128]	6	111
N#Cc1cnn2c(-c3cc(NC4CCOCC4)c(-c4nnc(N5CCN(C(=O)C6CCN(c7ccc(C8CCC(=O)NC8=O)cn7)CC6)CC5)s4)cn3)ccc2c1 (racemic) [Example 37, rac-7-(5-{5-[4-(1-{5-[(3R)-2,6-dioxopiperidin-3-yl]pyridin-2-yl}piperidine-4-carbonyl)piperazin-1-yl]-1,3,4-thiadiazol-2-yl}-4-[(oxan-4-yl)amino]pyridin-2-yl)pyrrolo[1,2-b]pyridazine-3-carbonitrile]	13	108
N#Cc1cnn2c(-c3cc(NC4CCOCC4)c(-c4nnc(N5CCN(CC6CCN(c7ccc(C8CCC(=O)NC8=O)cc7)CC6)CC5)s4)cn3)ccc2c1 (racemic) [Example 9, rac-7-[5-(5-{4-[(1-{4-[(3R)-2,6-dioxopiperidin-3-yl]phenyl}piperidin-4-yl)methyl]piperazin-1-yl}-1,3,4-thiadiazol-2-yl)-4-[(oxan-4-yl)amino]pyridin-2-yl]pyrrolo[1,2-b]pyridazine-3-carbonitrile]	69	90
N#CCNc1cc(-c2ccc3cc(C#N)cnn23)ncc1-c1nnc(N2CC3CCC(C2)N3CC2CCN(c3ccc([C@H]4CCC(=O)NC4=O)cn3)CC2)s1 (racemic) [Example 104, rac-7-{4-[(cyanomethyl)amino]-5-(5-{8-[(1-{5-[(3R)-2,6-dioxopiperidin-3-yl]pyridin-2-yl}piperidin-4-yl)methyl]-3,8-diazabicyclo[3.2.1]octan-3-yl}-1,3,4-thiadiazol-2-yl)pyridin-2-yl}pyrrolo[1,2-b]pyridazine-3-carbonitrile]	4	115
N#Cc1cnn2c(-c3cc(NC4CCOCC4)c(-c4nnc(N5CCN(CCC6CCN(c7ccc(C8CCC(=O)NC8=O)cn7)CC6)CC5)s4)cn3)ccc2c1 (racemic) [Example 14, rac-7-[5-(5-{4-[2-(1-{5-[(3R)-2,6-dioxopiperidin-3-yl]pyridin-2-yl}piperidin-4-yl)ethyl]piperazin-1-yl}-1,3,4-thiadiazol-2-yl)-4-[(oxan-4-yl)amino]pyridin-2-yl]pyrrolo[1,2-b]pyridazine-3-carbonitrile]	70	81
N#Cc1cnn2c(-c3cc(NC4CCOCC4)c(-c4nnc(N5CC6CCC(C5)N6CC5CCN(c6ccc([C@H]7CCC(=O)NC7=O)cc6)CC5)s4)cn3)ccc2c1 (single isomer, unassigned) [Example 110]	50	50
N#Cc1cnn2c(-c3cc(NC4CCOCC4)c(-c4nnc(N5CCN(C(=O)CN6CCN(c7cc(C8CCC(=O)NC8=O)ccn7)CC6)CC5)s4)cn3)ccc2c1 (racemic) [Example 15, rac-7-[5-(5-{4-[2-(4-{4-[(3R)-2,6-dioxopiperidin-3-yl]pyridin-2-yl}piperazin-1-yl)acetyl]piperazin-1-yl}-1,3,4-thiadiazol-2-yl)-4-[(oxan-4-yl)amino]pyridin-2-yl]pyrrolo[1,2-b]pyridazine-3-carbonitrile]	15	60

Results, then the compound that gave them:

DC50 [nM]	Dmax [%]	SMILES
97	32	N#Cc1cnn2c(-c3cc(NC4CCOCC4)c(-c4nnc(N5CCN(CC6CCN(c7ccc(N8CCC(=O)NC8=O)cc7)C6)CC5)s4)cn3)ccc2c1 (racemic) [Example 91, rac-7-{5-[5-(4-{[(3R)-1-[4-(2,4-dioxo-1,3-diazinan-1-yl)phenyl]pyrrolidin-3-yl]methyl}piperazin-1-yl)-1,3,4-thiadiazol-2-yl]-4-[(oxan-4-yl)amino]pyridin-2-yl}pyrrolo[1,2-b]pyridazine-3-carbonitrile]
21	113	CC1(Nc2cc(-c3ccc4cc(C#N)cnn34)ncc2-c2nnc(N3CCN(CC4CCN(c5ccc(C6CCC(=O)NC6=O)cn5)CC4)CC3)s2)COC1 (racemic) [Example 58, rac-7-[5-(5-{4-[(1-{5-[(3R)-2,6-dioxopiperidin-3-yl]pyridin-2-yl}piperidin-4-yl)methyl]piperazin-1-yl}-1,3,4-thiadiazol-2-yl)-4-[(3-methyloxetan-3-yl)amino]pyridin-2-yl]pyrrolo[1,2-b]pyridazine-3-carbonitrile]
52	80	N#Cc1cnn2c(-c3cc(NC4CC4)c(-c4nnc(N5CCN(CC6CCN(c7ccc(N8CCC(=O)NC8=O)cc7)CC6)CC5)s4)cn3)ccc2c1 [Example 83, 7-[4-(cyclopropylamino)-5-{5-[4-({1-[4-(2,4-dioxo-1,3-diazinan-1-yl)phenyl]piperidin-4-yl}methyl)piperazin-1-yl]-1,3,4-thiadiazol-2-yl}pyridin-2-yl]pyrrolo[1,2-b]pyridazine-3-carbonitrile]
10	112	CNc1cc(-c2ccc3cc(C#N)cnn23)ncc1-c1nnc(N2CCN(C(=O)C3CCN(c4ccc(C5CCC(=O)NC5=O)cn4)CC3)CC2)s1 (racemic) [Example 51, 7-{5-[5-(4-{1-[5-(2,6-dioxopiperidin-3-yl)pyridin-2-yl]piperidine-4-carbonyl}piperazin-1-yl)-1,3,4-thiadiazol-2-yl]-4-(methylamino)pyridin-2-yl}pyrrolo[1,2-b]pyridazine-3-carbonitrile]
49	110	CC(C)Nc1cc(-c2ccc3cc(C#N)cnn23)ncc1-c1nnc(N2CCN(CC3CCN(c4ccc([C@@H]5CCC(=O)NC5=O)cn4)CC3)CC2)s1 (single isomer, unassigned) [Example 118]
43	110	CC(C)Nc1cc(-c2ccc3cc(C#N)cnn23)ncc1-c1nnc(N2CCN(CC3CCN(c4ccc(N5CCC(=O)NC5=O)cn4)CC3)CC2)s1 [Example 65, 7-(5-{5-[4-({1-[5-(2,4-dioxo-1,3-diazinan-1-yl)pyridin-2-yl]piperidin-4-yl}methyl)piperazin-1-yl]-1,3,4-thiadiazol-2-yl}-4-[(propan-2-yl)amino]pyridin-2-yl)pyrrolo[1,2-b]pyridazine-3-carbonitrile]
13	113	CNc1cc(-c2ccc3cc(C#N)cnn23)ncc1-c1nnc(N2CCN(C(=O)CC[C@@H]3CCN(c4ccc([C@@H]5CCC(=O)NC5=O)cn4)C3)CC2)s1 (racemic) [Example 45, 7-{5-[5-(4-{3-[(3RS)-1-{5-[(3RS&)-2,6-dioxopiperidin-3-yl]pyridin-2-yl}pyrrolidin-3-yl]propanoyl}piperazin-1-yl)-1,3,4-thiadiazol-2-yl]-4-(methylamino)pyridin-2-yl}pyrrolo[1,2-b]pyridazine-3-carbonitrile]
23	111	CC1(Nc2cc(-c3ccc4cc(C#N)cnn34)ncc2-c2nnc(N3CCN(CC4CCN(c5ccc(C6CCC(=O)NC6=O)cc5)CC4)CC3)s2)COC1 (racemic) [Example 76, rac-7-[5-(5-{4-[(1-{4-[(3R)-2,6-dioxopiperidin-3-yl]phenyl}piperidin-4-yl)methyl]piperazin-1-yl}-1,3,4-thiadiazol-2-yl)-4-[(3-methyloxetan-3-yl)amino]pyridin-2-yl]pyrrolo[1,2-b]pyridazine-3-carbonitrile]
91	111	CNc1cc(-c2ccc3cc(C#N)cnn23)ncc1-c1nnc(N2CCC(N3CCN(CC4CCN(c5ccc(C6CCC(=O)NC6=O)cn5)CC4)CC3)CC2)s1 (racemic) [Example 50, 7-[5-(5-{4-[4-({1-[5-(2,6-dioxopiperidin-3-yl)pyridin-2-yl]piperidin-4-yl}methyl)piperazin-1-yl]piperidin-1-yl}-1,3,4-thiadiazol-2-yl)-4-(methylamino)pyridin-2-yl]pyrrolo[1,2-b]pyridazine-3-carbonitrile]
